According to PubChem BioAssay (NCI):
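Five compound concentrations were applied to cells in 96-well plates for 48 hours; endpoints were derived by simple linear interpolation of the resulting dose-response curve. TGI is the concentration that stops growth completely.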

How the values were obtained:
Assay in all cases: NCI-60 cell line screen, 48 h
SK-OV-3 ovarian = tested on: SK-OV-3 ovarian
SK-MEL-5 melanoma = tested on: SK-MEL-5 melanoma
DLD-1 colon = tested on: DLD-1 colon
NCI-H226 lung = tested on: NCI-H226 lung
OVCAR-8 ovarian = tested on: OVCAR-8 ovarian
NCI-H460 lung = tested on: NCI-H460 lung
DU-145 prostate = tested on: DU-145 prostate
SR leukemia = tested on: SR leukemia
MCF7 breast = tested on: MCF7 breast
NCI/ADR-RES ovarian = tested on: NCI/ADR-RES ovarian
SN12C renal = tested on: SN12C renal
NCI-H522 lung = tested on: NCI-H522 lung
MOLT-4 leukemia = tested on: MOLT-4 leukemia
TK-10 renal = tested on: TK-10 renal
HCT-15 colon = tested on: HCT-15 colon
SF-295 CNS = tested on: SF-295 CNS
M19-MEL melanoma = tested on: M19-MEL melanoma
LOX IMVI melanoma = tested on: LOX IMVI melanoma
RXF 393 renal = tested on: RXF 393 renal
EKVX NSCLC = tested on: EKVX NSCLC
MDA-MB-231 breast = tested on: MDA-MB-231 breast
CCRF-CEM leukemia = tested on: CCRF-CEM leukemia
NCI-H23 lung = tested on: NCI-H23 lung
U251 CNS = tested on: U251 CNS
HCC-2998 colon = tested on: HCC-2998 colon
MALME-3M melanoma = tested on: MALME-3M melanoma
HOP-92 NSCLC = tested on: HOP-92 NSCLC
IGROV1 ovarian = tested on: IGROV1 ovarian
UO-31 renal = tested on: UO-31 renal
MDA-N = tested on: MDA-N
CAKI-1 renal = tested on: CAKI-1 renal
SNB-75 CNS = tested on: SNB-75 CNS
HCT-116 colon = tested on: HCT-116 colon
SF-539 CNS = tested on: SF-539 CNS
BT-549 breast = tested on: BT-549 breast
HS 578T breast = tested on: HS 578T breast
K-562 leukemia = tested on: K-562 leukemia
OVCAR-3 ovarian = tested on: OVCAR-3 ovarian
OVCAR-4 ovarian = tested on: OVCAR-4 ovarian
HT29 colon = tested on: HT29 colon
SF-268 CNS = tested on: SF-268 CNS
HOP-62 NSCLC = tested on: HOP-62 NSCLC
UACC-62 melanoma = tested on: UACC-62 melanoma
KM20L2 colon = tested on: KM20L2 colon
A549 NSCLC = tested on: A549 NSCLC
DMS 114 small cell lung = tested on: DMS 114 small cell lung
M14 melanoma = tested on: M14 melanoma
SNB-19 CNS = tested on: SNB-19 CNS
786-0 renal = tested on: 786-0 renal
UACC-257 melanoma = tested on: UACC-257 melanoma
COLO 205 colon = tested on: COLO 205 colon
LXFL 529 NSCLC = tested on: LXFL 529 NSCLC
SW-620 colon = tested on: SW-620 colon
DMS 273 small cell lung = tested on: DMS 273 small cell lung
KM12 colon = tested on: KM12 colon
T-47D breast = tested on: T-47D breast
XF 498 CNS = tested on: XF 498 CNS
A498 renal = tested on: A498 renal
OVCAR-5 ovarian = tested on: OVCAR-5 ovarian
SK-MEL-2 melanoma = tested on: SK-MEL-2 melanoma
ACHN renal = tested on: ACHN renal
HL-60(TB) leukemia = tested on: HL-60(TB) leukemia
PC-3 prostate = tested on: PC-3 prostate
SNB-78 CNS = tested on: SNB-78 CNS
HOP-18 NSCLC = tested on: HOP-18 NSCLC
RPMI-8226 leukemia = tested on: RPMI-8226 leukemia
RXF-631 renal = tested on: RXF-631 renal
SK-MEL-28 melanoma = tested on: SK-MEL-28 melanoma

Nc1nc(N)c(CCCCc2ccc([N+](=O)[O-])cc2)c(N)n1
TGI (SK-OV-3 ovarian): > 100 µM | TGI (SK-MEL-5 melanoma): > 100 µM | TGI (DLD-1 colon): > 100 µM | TGI (NCI-H226 lung): > 100 µM | TGI (OVCAR-8 ovarian): > 100 µM | TGI (NCI-H460 lung): > 100 µM | TGI (DU-145 prostate): > 100 µM | TGI (SR leukemia): > 100 µM | TGI (MCF7 breast): > 100 µM | TGI (NCI/ADR-RES ovarian): > 100 µM | TGI (SN12C renal): > 100 µM | TGI (NCI-H522 lung): > 100 µM | TGI (MOLT-4 leukemia): > 100 µM | TGI (TK-10 renal): > 100 µM | TGI (HCT-15 colon): > 100 µM | TGI (SF-295 CNS): > 100 µM | TGI (M19-MEL melanoma): > 100 µM | TGI (LOX IMVI melanoma): > 100 µM | TGI (RXF 393 renal): > 100 µM | TGI (EKVX NSCLC): > 100 µM | TGI (MDA-MB-231 breast): > 100 µM | TGI (CCRF-CEM leukemia): > 100 µM | TGI (NCI-H23 lung): > 100 µM | TGI (U251 CNS): > 100 µM | TGI (HCC-2998 colon): > 100 µM | TGI (MALME-3M melanoma): > 100 µM | TGI (HOP-92 NSCLC): > 100 µM | TGI (IGROV1 ovarian): > 100 µM | TGI (UO-31 renal): > 100 µM | TGI (MDA-N): > 100 µM | TGI (CAKI-1 renal): > 100 µM | TGI (SNB-75 CNS): > 100 µM | TGI (HCT-116 colon): > 100 µM | TGI (SF-539 CNS): > 100 µM | TGI (BT-549 breast): > 100 µM | TGI (HS 578T breast): > 100 µM | TGI (K-562 leukemia): > 100 µM | TGI (OVCAR-3 ovarian): > 100 µM | TGI (OVCAR-4 ovarian): > 100 µM | TGI (HT29 colon): > 100 µM | TGI (SF-268 CNS): > 100 µM | TGI (HOP-62 NSCLC): > 100 µM | TGI (UACC-62 melanoma): > 100 µM | TGI (KM20L2 colon): > 100 µM | TGI (A549 NSCLC): > 100 µM | TGI (DMS 114 small cell lung): > 100 µM | TGI (M14 melanoma): > 100 µM | TGI (SNB-19 CNS): > 100 µM | TGI (786-0 renal): > 100 µM | TGI (UACC-257 melanoma): > 100 µM | TGI (COLO 205 colon): > 100 µM | TGI (LXFL 529 NSCLC): > 100 µM | TGI (SW-620 colon): > 100 µM | TGI (DMS 273 small cell lung): > 100 µM | TGI (KM12 colon): > 100 µM | TGI (T-47D breast): > 100 µM | TGI (XF 498 CNS): > 100 µM | TGI (A498 renal): > 100 µM | TGI (OVCAR-5 ovarian): > 100 µM | TGI (SK-MEL-2 melanoma): > 100 µM | TGI (ACHN renal): > 100 µM | TGI (HL-60(TB) leukemia): > 100 µM | TGI (PC-3 prostate): > 100 µM | TGI (SNB-78 CNS): > 100 µM | TGI (HOP-18 NSCLC): > 100 µM | TGI (RPMI-8226 leukemia): > 100 µM

Cc1ccccc1NC(=O)C(=O)C(C(=O)c1ccccc1F)C1OC(=O)c2ccccc21 (stereo not drawn)
TGI (SK-OV-3 ovarian): > 100 µM | TGI (SK-MEL-5 melanoma): 86.5 µM | TGI (DLD-1 colon): 57.7 µM | TGI (NCI-H226 lung): 14.3 µM | TGI (NCI-H460 lung): > 100 µM | TGI (SN12C renal): 71.2 µM | TGI (NCI-H522 lung): 19.1 µM | TGI (MOLT-4 leukemia): 52.4 µM | TGI (TK-10 renal): > 100 µM | TGI (HCT-15 colon): 79.5 µM | TGI (LOX IMVI melanoma): 33.6 µM | TGI (RXF 393 renal): 24.6 µM | TGI (EKVX NSCLC): > 100 µM | TGI (CCRF-CEM leukemia): 62.4 µM | TGI (NCI-H23 lung): 28.2 µM | TGI (U251 CNS): 60.6 µM | TGI (HCC-2998 colon): 24.8 µM | TGI (MALME-3M melanoma): 95.1 µM | TGI (HOP-92 NSCLC): 65.8 µM | TGI (RXF-631 renal): 73.6 µM | TGI (SK-MEL-28 melanoma): 35.8 µM | TGI (UO-31 renal): 49.4 µM | TGI (CAKI-1 renal): 50 µM | TGI (SNB-75 CNS): 31.8 µM | TGI (HCT-116 colon): 29.1 µM | TGI (SF-539 CNS): 27.4 µM | TGI (K-562 leukemia): > 100 µM | TGI (OVCAR-3 ovarian): 95 µM | TGI (OVCAR-4 ovarian): 60.9 µM | TGI (HT29 colon): > 100 µM | TGI (SF-268 CNS): 62.5 µM | TGI (HOP-62 NSCLC): 44.4 µM | TGI (KM20L2 colon): > 100 µM | TGI (A549 NSCLC): > 100 µM | TGI (DMS 114 small cell lung): 53.3 µM | TGI (M14 melanoma): 30.3 µM | TGI (SNB-19 CNS): 94.8 µM | TGI (786-0 renal): 41.6 µM | TGI (UACC-257 melanoma): > 100 µM | TGI (COLO 205 colon): 45.1 µM | TGI (LXFL 529 NSCLC): 75.3 µM | TGI (SW-620 colon): > 100 µM | TGI (DMS 273 small cell lung): 64.5 µM | TGI (KM12 colon): 68.2 µM | TGI (A498 renal): > 100 µM | TGI (OVCAR-5 ovarian): > 100 µM | TGI (SK-MEL-2 melanoma): 65.4 µM | TGI (ACHN renal): > 100 µM | TGI (HL-60(TB) leukemia): 56.5 µM | TGI (SNB-78 CNS): 80.8 µM | TGI (HOP-18 NSCLC): 79.4 µM | TGI (RPMI-8226 leukemia): 48.3 µM
